Data from PubChem BioAssay (NCI).
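Growth conditions: 96-well plates. Treatment: test compound, 48 hours, 5 concentrations. Analysis: linear interpolation between bracketing concentrations; unreached endpoints set to highest concentration. TGI: total growth inhibition.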

Legend:
Experiment in all cases: NCI anticancer screen, dose series, 48 h
SF-539 CNS = tested on: SF-539 CNS
SK-MEL-2 melanoma = tested on: SK-MEL-2 melanoma
TK-10 renal = tested on: TK-10 renal
SNB-19 CNS = tested on: SNB-19 CNS
UO-31 renal = tested on: UO-31 renal
SK-OV-3 ovarian = tested on: SK-OV-3 ovarian
SR leukemia = tested on: SR leukemia
HCT-15 colon = tested on: HCT-15 colon
MDA-MB-231 breast = tested on: MDA-MB-231 breast
MDA-N = tested on: MDA-N
K-562 leukemia = tested on: K-562 leukemia
COLO 205 colon = tested on: COLO 205 colon
SW-620 colon = tested on: SW-620 colon
LOX IMVI melanoma = tested on: LOX IMVI melanoma
PC-3 prostate = tested on: PC-3 prostate
ACHN renal = tested on: ACHN renal
UACC-257 melanoma = tested on: UACC-257 melanoma
HOP-62 NSCLC = tested on: HOP-62 NSCLC
A549 NSCLC = tested on: A549 NSCLC
M14 melanoma = tested on: M14 melanoma
NCI-H23 lung = tested on: NCI-H23 lung
SK-MEL-5 melanoma = tested on: SK-MEL-5 melanoma
CCRF-CEM leukemia = tested on: CCRF-CEM leukemia
MDA-MB-435 = tested on: MDA-MB-435
DU-145 prostate = tested on: DU-145 prostate
MALME-3M melanoma = tested on: MALME-3M melanoma
NCI-H226 lung = tested on: NCI-H226 lung
SF-295 CNS = tested on: SF-295 CNS
OVCAR-3 ovarian = tested on: OVCAR-3 ovarian
OVCAR-8 ovarian = tested on: OVCAR-8 ovarian
HCC-2998 colon = tested on: HCC-2998 colon
NCI/ADR-RES ovarian = tested on: NCI/ADR-RES ovarian
EKVX NSCLC = tested on: EKVX NSCLC
IGROV1 ovarian = tested on: IGROV1 ovarian
NCI-H460 lung = tested on: NCI-H460 lung
HL-60(TB) leukemia = tested on: HL-60(TB) leukemia
CAKI-1 renal = tested on: CAKI-1 renal
HS 578T breast = tested on: HS 578T breast
HCT-116 colon = tested on: HCT-116 colon
HOP-92 NSCLC = tested on: HOP-92 NSCLC
RPMI-8226 leukemia = tested on: RPMI-8226 leukemia
UACC-62 melanoma = tested on: UACC-62 melanoma
A498 renal = tested on: A498 renal
MOLT-4 leukemia = tested on: MOLT-4 leukemia
SN12C renal = tested on: SN12C renal
U251 CNS = tested on: U251 CNS
RXF 393 renal = tested on: RXF 393 renal
HT29 colon = tested on: HT29 colon
OVCAR-5 ovarian = tested on: OVCAR-5 ovarian
786-0 renal = tested on: 786-0 renal
BT-549 breast = tested on: BT-549 breast
MCF7 breast = tested on: MCF7 breast
KM12 colon = tested on: KM12 colon
SK-MEL-28 melanoma = tested on: SK-MEL-28 melanoma
NCI-H522 lung = tested on: NCI-H522 lung
SNB-75 CNS = tested on: SNB-75 CNS
SF-268 CNS = tested on: SF-268 CNS

Compound `Cc1cccc(N2C(=O)C3c4[nH]c5ccccc5c4C4CCC(C(C)(C)C)CC4C3C2=O)c1C` (centres undefined) has a TGI (SF-539 CNS) of over 100 µM, a TGI (SK-MEL-2 melanoma) of over 100 µM and a TGI (TK-10 renal) of over 100 µM. It also gave a TGI (SNB-19 CNS) of over 100 µM, a TGI (UO-31 renal) of over 100 µM and a TGI (SK-OV-3 ovarian) of over 100 µM. For the same compound, the TGI (SR leukemia) was over 100 µM, the TGI (HCT-15 colon) was over 100 µM and the TGI (MDA-MB-231 breast) was 42.3 µM. The TGI (MDA-N) was over 100 µM, the TGI (K-562 leukemia) was over 100 µM and the TGI (COLO 205 colon) was over 100 µM. It also gave a TGI (SW-620 colon) of over 100 µM, a TGI (LOX IMVI melanoma) of over 100 µM and a TGI (PC-3 prostate) of over 100 µM. It also gave a TGI (ACHN renal) of over 100 µM, a TGI (UACC-257 melanoma) of over 100 µM and a TGI (HOP-62 NSCLC) of over 100 µM. It also gave a TGI (A549 NSCLC) of over 100 µM, a TGI (M14 melanoma) of over 100 µM and a TGI (NCI-H23 lung) of over 100 µM. For the same compound, the TGI (SK-MEL-5 melanoma) was over 100 µM, the TGI (CCRF-CEM leukemia) was over 100 µM and the TGI (MDA-MB-435) was over 100 µM. It also gave a TGI (DU-145 prostate) of over 100 µM, a TGI (MALME-3M melanoma) of over 100 µM and a TGI (NCI-H226 lung) of over 100 µM. The TGI (SF-295 CNS) was over 100 µM, the TGI (OVCAR-3 ovarian) was over 100 µM and the TGI (OVCAR-8 ovarian) was over 100 µM. The TGI (HCC-2998 colon) was over 100 µM, the TGI (NCI/ADR-RES ovarian) was over 100 µM and the TGI (EKVX NSCLC) was over 100 µM. The TGI (IGROV1 ovarian) was over 100 µM, the TGI (NCI-H460 lung) was over 100 µM and the TGI (HL-60(TB) leukemia) was 60.4 µM. For the same compound, the TGI (CAKI-1 renal) was over 100 µM, the TGI (HS 578T breast) was over 100 µM and the TGI (HCT-116 colon) was over 100 µM. The TGI (HOP-92 NSCLC) was over 100 µM, the TGI (RPMI-8226 leukemia) was over 100 µM and the TGI (UACC-62 melanoma) was over 100 µM. It also gave a TGI (A498 renal) of over 100 µM, a TGI (MOLT-4 leukemia) of over 100 µM and a TGI (SN12C renal) of over 100 µM. The TGI (U251 CNS) was 83.4 µM, the TGI (RXF 393 renal) was over 100 µM and the TGI (HT29 colon) was over 100 µM. For the same compound, the TGI (OVCAR-5 ovarian) was over 100 µM, the TGI (786-0 renal) was over 100 µM and the TGI (BT-549 breast) was over 100 µM. For the same compound, the TGI (MCF7 breast) was over 100 µM.

`C=CCCC(CCC=C)(C(=O)O)C(=O)O` was tested, and the TGI (SF-539 CNS) was over 100 µM, the TGI (SK-MEL-2 melanoma) was over 100 µM and the TGI (TK-10 renal) was over 100 µM. For the same compound, the TGI (SNB-19 CNS) was over 100 µM, the TGI (UO-31 renal) was over 100 µM and the TGI (KM12 colon) was over 100 µM. For the same compound, the TGI (SR leukemia) was over 100 µM, the TGI (HCT-15 colon) was over 100 µM and the TGI (MDA-MB-231 breast) was over 100 µM. For the same compound, the TGI (MDA-N) was over 100 µM, the TGI (K-562 leukemia) was over 100 µM and the TGI (COLO 205 colon) was over 100 µM. The TGI (SW-620 colon) was over 100 µM, the TGI (LOX IMVI melanoma) was over 100 µM and the TGI (PC-3 prostate) was over 100 µM. It also gave a TGI (ACHN renal) of over 100 µM, a TGI (UACC-257 melanoma) of over 100 µM and a TGI (HOP-62 NSCLC) of over 100 µM. It also gave a TGI (A549 NSCLC) of over 100 µM, a TGI (M14 melanoma) of over 100 µM and a TGI (NCI-H23 lung) of over 100 µM. It also gave a TGI (SK-MEL-28 melanoma) of over 100 µM, a TGI (NCI-H522 lung) of over 100 µM and a TGI (SNB-75 CNS) of over 100 µM. For the same compound, the TGI (SK-MEL-5 melanoma) was over 100 µM, the TGI (CCRF-CEM leukemia) was over 100 µM and the TGI (MDA-MB-435) was over 100 µM. For the same compound, the TGI (DU-145 prostate) was over 100 µM, the TGI (MALME-3M melanoma) was over 100 µM and the TGI (SF-295 CNS) was over 100 µM. It also gave a TGI (OVCAR-3 ovarian) of over 100 µM, a TGI (OVCAR-8 ovarian) of over 100 µM and a TGI (HCC-2998 colon) of over 100 µM. For the same compound, the TGI (NCI/ADR-RES ovarian) was over 100 µM, the TGI (EKVX NSCLC) was over 100 µM and the TGI (IGROV1 ovarian) was over 100 µM. For the same compound, the TGI (NCI-H460 lung) was over 100 µM, the TGI (HL-60(TB) leukemia) was over 100 µM and the TGI (HS 578T breast) was over 100 µM. For the same compound, the TGI (HCT-116 colon) was over 100 µM, the TGI (RPMI-8226 leukemia) was over 100 µM and the TGI (UACC-62 melanoma) was over 100 µM. For the same compound, the TGI (MOLT-4 leukemia) was over 100 µM, the TGI (SN12C renal) was over 100 µM and the TGI (U251 CNS) was over 100 µM. It also gave a TGI (RXF 393 renal) of over 100 µM, a TGI (HT29 colon) of over 100 µM and a TGI (OVCAR-5 ovarian) of over 100 µM. For the same compound, the TGI (786-0 renal) was over 100 µM, the TGI (BT-549 breast) was over 100 µM and the TGI (SF-268 CNS) was over 100 µM. For the same compound, the TGI (MCF7 breast) was over 100 µM.
